Key:
[1] = target: T1, TGF-beta type I receptor (Mus musculus, UniProt Q64729); assay: Systemic TGFβ receptor inhibition during PAN02 exosome education, liver immunofluorescence; format: in vivo; conditions: A83-01 i.p. during the three-week course of PAN02 exosome education
T1 construct: from tissue; host or cells: living C57Bl/6 mice; liver analysed by immunofluorescence
T1 sequence (Q64729 30-503): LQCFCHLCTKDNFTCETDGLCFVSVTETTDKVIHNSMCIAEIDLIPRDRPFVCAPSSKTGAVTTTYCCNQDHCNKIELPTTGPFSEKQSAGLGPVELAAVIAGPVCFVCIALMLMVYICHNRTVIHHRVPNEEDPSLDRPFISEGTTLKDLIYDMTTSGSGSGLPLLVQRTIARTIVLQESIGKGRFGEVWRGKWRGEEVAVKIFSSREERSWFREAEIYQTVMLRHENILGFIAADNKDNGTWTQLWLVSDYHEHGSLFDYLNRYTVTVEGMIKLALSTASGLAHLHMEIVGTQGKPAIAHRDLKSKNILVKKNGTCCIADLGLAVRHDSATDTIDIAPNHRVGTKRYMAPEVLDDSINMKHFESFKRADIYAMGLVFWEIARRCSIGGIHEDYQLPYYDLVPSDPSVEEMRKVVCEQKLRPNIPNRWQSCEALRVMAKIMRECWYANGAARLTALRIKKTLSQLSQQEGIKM
Description: Five micrograms of total exosomal protein was injected into the retro-orbital venous sinus in a total volume of 100 μl PBS. For education experiments, mice received 5 μg of exosomes every other day, 3 times a week. For exosome-tracking experiments, purified exosomes were fluorescently labelled using PKH67 membrane dye (Sigma). Labelled exosomes were washed in 20 ml of PBS, collected by ultracentrifugation, and resuspended in PBS. In experiments involving evaluation of exosome incorporation, labelled exosomes were injected 24 h before tissue collection and analysis for exosome^+ cells was conducted by flow cytometry or immunofluorescence. For exosome-tracking experiments, 5 μg of non-tumour exosomes from normal pancreas were used as controls. Unlabeled exosomes were used as controls of signal specificity. For education experiments, retro-orbital injection of PBS or normal pancreata exosomes was used in control groups.
For systemic TGFβ receptor inhibition, mice were treated with intraperitoneal injections of A83-01 (Santa Cruz). Mice were administered 10 μg of A83-01 (diluted in 100 μl of dimethylsulphoxide) per gram of mouse weight for a total of 9 doses, every other day, for the three weeks of PAN02 exosome education.
For histological analysis, tissues were dissected and fixed in a mix of 2% PFA and 20% sucrose solution overnight, and then embedded in Tissue-tek O.C.T. (Electron Microscopy Sciences). Blocks were frozen in a dry ice and ethanol bath. […] GFP and mCherry′ cells were detected by their intrinsic signal. Fluorescent images were obtained using a Nikon confocal microscope (Eclipse TE2000U) and analyzed using Nikon software (EZ-C1 3.6). FN and αSMA expression were quantified using ImageJ Software (NIH) by determining the ratio between the areas of FN and DAPI staining, expressed in arbitrary units (a.u.).

[2] = system: fibronectin; assay: Tamoxifen-driven conditional FN knockout during PAN02 exosome education, liver immunofluorescence; format: in vivo, mouse; conditions: tamoxifen treatment of Rosa-CreER+; Fn fl/fl mice during PAN02 exosome education
Description: To generate inducible FN knockout mice, we crossed B6; 129-Gt(ROSA)26SOR^tm1(cre/ERT2)Tyj/J mice expressing tamoxifen-sensitive Cre under the Gt(Rosa)26 or promoter (Jackson Laboratories, stock 008463) with mice homozygous for a floxed allele of fibronectin (Fn^fl/fl, generously provided by R. Fässler, Max Planck Institute of Biochemistry) (Sakai et al., “Plasma Fibronectin Supports Neuronal Survival and Reduces Brain Injury Following Transient Focal Cerebral Ischemia but is Not Essential for Skin-Wound Healing and Hemostasis,” Nat. Med. 7:324-330 (2001), which is hereby incorporated by reference in its entirety). […] For verification of Fn deletion, liver FN expression was evaluated by immunofluorescence.
For histological analysis, tissues were dissected and fixed in a mix of 2% PFA and 20% sucrose solution overnight, and then embedded in Tissue-tek O.C.T. (Electron Microscopy Sciences). […] GFP and mCherry′ cells were detected by their intrinsic signal. Fluorescent images were obtained using a Nikon confocal microscope (Eclipse TE2000U) and analyzed using Nikon software (EZ-C1 3.6). FN and αSMA expression were quantified using ImageJ Software (NIH) by determining the ratio between the areas of FN and DAPI staining, expressed in arbitrary units (a.u.).

Row | Structure (SMILES) | F4/80+ macrophage migration to the liver [1] | FN deposition in the liver [1] | frequency of αSMA+ hStCs in the liver [1] | FN deposition in the liver [2] | αSMA expression in the liver [2]
1 | Cc1cccc(-c2nn(C(=S)Nc3ccccc3)cc2-c2ccnc3ccccc23)n1 [A83-01, 3-(6-Methyl-2-pyridinyl)-N-phenyl-4-(4-quinolinyl)-1H-pyrazole-1-carbothioamide] | reduced | reduced | reduced |  | 
2 | CC/C(=C(\c1ccccc1)c1ccc(OCCN(C)C)cc1)c1ccccc1 [tamoxifen] |  |  |  | reduced to control | not affected
